# Results from patent US9834527B2, “Macrocyclic urea derivatives as inhibitors of TAFIa, their preparation and their use as pharmaceuticals” (SANOFI, priority 2013, dated 2017).
# Like-named read-outs stand apart in the source and are kept apart here.
# What was measured:
# [1] = molecular target: T1, TAFIa (Homo sapiens, UniProt Q96IY4); experiment: TAFIa inhibition (Actichrome plasma TAFI Activity Kit, 15 minutes pre-incubation); format: biochemical; conditions: 15 minutes pre-incubation at room temperature
# T1 construct: purchased American Diagnostica 874TAFIA
# T1 sequence (Q96IY4 115-423): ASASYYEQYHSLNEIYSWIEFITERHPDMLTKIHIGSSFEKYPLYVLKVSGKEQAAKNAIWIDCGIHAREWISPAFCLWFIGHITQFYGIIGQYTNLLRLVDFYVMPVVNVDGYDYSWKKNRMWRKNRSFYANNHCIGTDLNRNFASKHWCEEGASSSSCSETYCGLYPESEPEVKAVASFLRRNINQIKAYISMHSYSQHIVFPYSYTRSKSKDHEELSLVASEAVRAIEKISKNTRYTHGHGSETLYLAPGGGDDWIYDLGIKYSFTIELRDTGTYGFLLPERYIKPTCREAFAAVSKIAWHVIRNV
# Method: The prepared substances were tested for TAFIa inhibition using the Actichrome plasma TAFI Activity Kit from American Diagnostica (Pr. No. 874). This entailed adding 28 μl of assay buffer (20 mM Hepes, 150 mM NaCl, pH 7.4) and 10 μl of TAFIa (American Diagnostica Pr. No. 874TAFIA; 2.5 μg/ml) to 2 μl of 2.5 mM DMSO solution of the substance and incubating in a 96 half-well microtiter plate at room temperature for 15 minutes. The enzyme reaction was started by adding 10 μl of TAFIa developer (prediluted 1:2 with assay buffer). The time course of the reaction was followed at 420 nm in a microtiter plate reader (SpectraMax plus 384; Molecular Devices) for 15 minutes.
# The IC50 values were calculated from the averaged values (duplicate determination) of serial dilutions of the substance with the aid of the Softmax Pro software (version 4.8; Molecular Devices).
# [2] = molecular target: T1, TAFIa; experiment: TAFIa inhibition at variable preincubation times; format: biochemical; conditions: for behaviour of the coefficient of IC50s with increasing pre-incubation time: increasing pre-incubation time (0 to 30 min)
# Method: The prepared substances were tested for TAFIa inhibition using the Actichrome plasma TAFI Activity Kit from American Diagnostica (Pr. No. 874). This entailed adding 28 μl of assay buffer (20 mM Hepes, 150 mM NaCl, pH 7.4) and 10 μl of TAFIa (American Diagnostica Pr. No. 874TAFIA; 2.5 μg/ml) to 2 μl of 2.5 mM DMSO solution of the substance and incubating in a 96 half-well microtiter plate at room temperature for variable pre-incubation times (0, 5, 15 and 30 minutes). The enzyme reaction was started by adding 10 μl of TAFIa developer (prediluted 1:2 with assay buffer). The time course of the reaction was followed at 420 nm in a microtiter plate reader (SpectraMax plus 384; Molecular Devices) for 15 minutes.
# The IC50 values were calculated from the averaged values (duplicate determination) of serial dilutions of the substance with the aid of the Softmax Pro software (version 4.8; Molecular Devices). The coefficient of IC50 values was determined by IC50 value at 0 min over IC50 value at x minutes, wherein x can be 0, 5, 15 or 30 minutes of pre-incubation time.
# [3] = example compounds, read-out: IC50
SMILES,"IC50 [1, 3] [nM]",behaviour of the coefficient of IC50s with increasing pre-incubation time [2],Coefficient of IC50s (IC50 value at 0 min/IC50 value at x min preincubation time) ([2]; pre-incubation time 0 min),Coefficient of IC50s (IC50 value at 0 min/IC50 value at x min preincubation time) ([2]; pre-incubation time 5 min),Coefficient of IC50s (IC50 value at 0 min/IC50 value at x min preincubation time) ([2]; pre-incubation time 15 min),Coefficient of IC50s (IC50 value at 0 min/IC50 value at x min preincubation time) ([2]; pre-incubation time 30 min),"IC50 ([1]; comparison examples according to WO2009146802, read-out: IC50 of Comparison examples) [nM]"
"CC(C)[C@H]1COCCCCOc2ccc(cc2)C[C@@H](NC(=O)N[C@@](C)(C[C@@H]2CC[C@@H](N)C2)C(=O)O)C(=O)N1 [Example 3, (S)-3-((1R,3R)-3-Amino-cyclopentyl)-2-[3-((9S,12R)-9-isopropyl-11-oxo-2,7-dioxa-10-aza-bicyclo[12.2.2]octadeca-1(17),14(18),15-trien-12-yl)-ureido]-2-methyl-propionic acid]",1,–,–,–,–,–,–
CC(C)[C@H]1COCCCCOc2ccc(cc2)C[C@@H](NC(=O)N[C@@H](C[C@H]2C[C@H](N)C2)C(=O)O)C(=O)N1 [reference compound],–,stays nearly constant in time,1,0.5,1.3,1,4

# Further lines, results first:
"IC50 [1, 3] [nM]",behaviour of the coefficient of IC50s with increasing pre-incubation time [2],Coefficient of IC50s (IC50 value at 0 min/IC50 value at x min preincubation time) ([2]; pre-incubation time 0 min),Coefficient of IC50s (IC50 value at 0 min/IC50 value at x min preincubation time) ([2]; pre-incubation time 5 min),Coefficient of IC50s (IC50 value at 0 min/IC50 value at x min preincubation time) ([2]; pre-incubation time 15 min),Coefficient of IC50s (IC50 value at 0 min/IC50 value at x min preincubation time) ([2]; pre-incubation time 30 min),"IC50 ([1]; comparison examples according to WO2009146802, read-out: IC50 of Comparison examples) [nM]",SMILES
0.3,–,–,–,–,–,–,"CC(C)[C@H]1COCCCCOc2ccc(cc2)C[C@@H](NC(=O)N[C@@](C)(Cc2ccc(N)nc2)C(=O)O)C(=O)N1 [Example 1, (S)-3-(6-Amino-pyridin-3-yl)-2-[3-((9S,12R)-9-isopropyl-11-oxo-2,7-dioxa-10-aza-bicyclo[12.2.2]octadeca-1(17),14(18),15-trien-12-yl)-ureido]-2-methyl-propionic acid]"
0.3,increases,1,2.9,5.8,7.7,–,"CC(C)[C@H]1COCCCCOc2ccc(cc2)C[C@@H](NC(=O)N[C@@](C)(C[C@H]2C[C@H](N)C2)C(=O)O)C(=O)N1 [Example 2, (S)-3-trans-(3-Amino-cyclobutyl)-2-[3-((9S,12R)-9-isopropyl-11-oxo-2,7-dioxa-10-aza-bicyclo[12.2.2]octadeca-1(17),14(18),15-trien-12-yl)-ureido]-2-methyl-propionic acid]"
1,–,–,–,–,–,–,"CC(C)[C@H]1COCCCCOC[C@@H](NC(=O)N[C@@](C)(Cc2ccc(N)nc2)C(=O)O)C(=O)N1 [Example 4, (S)-3-(6-Amino-pyridin-3-yl)-2-[3-((3S,6R)-3-isopropyl-5-oxo-1,8-dioxa-4-aza-cyclododec-6-yl)-ureido]-2-methyl-propionic acid]"
